{"source": "patent US12312346B2", "about": "“Pyridopyrimidine compounds and methods of their use” (Tufts Medical Center, Inc., priority 2018, dated 2025)", "key": {"[1]": {"test_system": "differentiated SVF cells (beige cell formation)", "assay": "Oil Red O staining of differentiated SVF cells with BAT inducers", "format": "cell-based", "details": "GD 5 μM, FIG. 8B", "description": "FIG. 8B is an image of Oil Red O staining of differentiated SVF cells treated with a vehicle or compound GD (5 μM) in the presence of brown adipose tissue (BAT) inducers. Scale bar: 100 μM\n(§1) Beige cells are associated with protection against obesity and metabolic syndrome (WO 2017/161253). Accordingly, compound GD and related compounds of the invention can be used for treating obesity and related metabolic diseases."}, "[2]": {"test_system": "phosphorylated pRB at SER-780 in MDA-MB231 cells", "assay": "Immunoblot of phosphorylated pRB (SER-780) and PI staining, MDA-MB231", "format": "cell-based", "description": "FIG. 5A is an image of a representative immunoblot showing the levels of phosphorylated pRB at SER-780 in MDA-MB231 and HPBALL cells following treatment of these cells with a vehicle, PD, or compound GD for 24 hours. Tubulin was used as loading control.\n(§2) Table 2: Experimental Procedures: sensitivity to CDK6 kinase activity inhibition was tested by incubating different cell lines in the presence of CDK6 inhibitor GD007/PBS for either 24 hours for detecting the status of pRB-780 phosphorylation, or 5 days for determining the effect of GD007 on cell proliferation. (1) By immunoblotting (WB), we will detect phospho-pRB-S^780, one of the substrates of CDK6 kinase; (2) By using FACS analysis, we will stain treated cells with Propidium Iodide (PI), a commonly used fluorescent intercalator, to measure the subpopulation of cell cycle to reveal any impact of CDK6 inhibition on cell proliferation; (3) cell numbers will be counted using hemocytometer."}, "[3]": {"test_system": "Prostate Cancer: PC-3", "assay": "pRB-780 immunoblot, PC-3", "format": "cell-based", "details": "WB: P-RB-780", "description": "as §2"}, "[4]": {"assay": "Fat pad mass and body weight of WT mice on normal chow diet", "format": "in vivo", "details": "WT (B6) mice, NCD", "description": "FIGS. 9A and 9B are images showing a close view of the iWAT (FIG. 9A) and eWAT (FIG. 9B) and mass of fat pads from mice treated with GD or PBS, as indicated. The mass of various fat pads was normalized to body weight of mice on NCD at the end of experiments. Data shown are mean±S.D. (n=8 for each group), *p<0.05, t-test, GD vs PBS.\nFIG. 9D is a graph showing body weight of age-matched female WT mice on NCD over 27-day observation period. GD/PBS commenced by gavage daily for 21 days at 200 mg/kg/day at age of 6-weeks-old. Body weight shown are mean±S.D. (n=8 for each group), *p<0.05, t-test, GD vs PBS."}, "[5]": {"test_system": "mouse KO-MEFs (CDK6^−/− MEFs)", "assay": "Cell cycle and cell number, CDK6-/- MEFs (KO-MEFs)", "format": "cell-based", "description": "FIG. 6E is a series of charts showing representative cell cycle profiles of mouse KO-MEFs treated with a vehicle (V), PD (0.5 μM), or compound GD at 1, 5, 10, and 20 μM for 6 days.\nFIG. 6F is a histogram summarizing the cell cycle distribution in FIG. 6E. Data shown are mean±S.D. (n=6); *P<0.05 vs its vehicle control, t-test.\nFIG. 6G is a bar graph summarizing the cell numbers of KO-MEFs treated with PD (0.5 μM) or compound GD at different doses for 6 days. Data shown are mean±S.D. (n=6); *P<0.05 vs its vehicle control, t-test.\nHCl salt of 6-acetyl-5-methyl-2-((4-(piperazin-1-ylmethyl)thiazol-2-yl)amino)pyrido[2,3-d]pyrimidin-7(8H)-one (Compound GD) prepared in Example 1 was examined for its inhibitory activity in cancer cell lines and WT and CDK6^−/− mouse embryonic fibroblasts (MEFs) and stromal vascular fractions (SVFs). MEFs and SVFs are enriched with mesenchymal stem cells (MSC) and pre-adipocytes which can differentiate into a variety of cell types, including adipocytes."}, "[6]": {"test_system": "differentiated SVF cells (white adipocyte formation)", "assay": "Oil Red O staining of differentiated SVF cells with WAT inducers", "format": "cell-based", "details": "vs vehicle", "description": "FIG. 8A is an image of Oil Red O staining of differentiated SVF cells treated with a vehicle or compound GD (5 μM) in the presence of white adipose tissue (WAT) inducers. Scale bar: 100 μM\nFIG. 8C is an image of Oil Red O staining of differentiated SVF cells treated with a vehicle or compound GD (0.1 μM) in the presence of white adipose tissue (WAT) inducers. Scale bar: 400 μM for the top 2 images, and 100 μM for the bottom two images.\nas §1"}, "[7]": {"test_system": "phosphorylated pRB at SER-780 in U87 cells", "assay": "Immunoblot of phosphorylated pRB (SER-780), U87", "format": "cell-based, human", "description": "FIG. 5C is an image of a representative immunoblot showing the levels of phosphorylated pRB at SER-780 in U87 cells following treatment of these cells with a vehicle, PD, or compound GD for 24 hours. Tubulin was used as loading control.\nas §2"}, "[8]": {"test_system": "human lung cancer cell line A549", "assay": "Cell cycle (PI staining, S-G2-M cells) and pRB immunoblot, A549", "format": "cell-based", "description": "FIG. 4A is a series of charts showing representative cell cycle profiles of human lung cancer cell line A549 treated with a vehicle (V) (for palbociclib (PD) or compound GD), PD (0.5 μM), or compound GD at 0.005, 0.05, 0.5, and 5 μM for 6 days.\nFIG. 4B is a histogram showing the cell cycle distribution of A549 cell line in FIG. 4A. Data shown are mean±S.D. (n=6); *P<0.05 vs its vehicle controls, t-test.\nFIG. 4C is a chart showing the percentage of S-G2-M cells in FIG. 4B. IC50 for compound GD is ca. 0.05 μM.\nFIG. […] Tubulin was used as a loading control.\nas §2"}, "[9]": {"details": "200 mg/kg/day for 21 days, normalized to body weight"}}, "note": "“Also recorded” adds a separate entry of the source.", "data": [{"compound": "CC(=O)c1c(C)c2cnc(Nc3nc(CN4CCNCC4)cs3)nc2[nH]c1=O", "note": "[Compound GD, 6-acetyl-5-methyl-2-((4-(piperazin-1-ylmethyl)thiazol-2-yl)amino)pyrido[2,3-d]pyrimidin-7(8H)-one]", "values": [{"measurement": "beige cell formation", "setting": "[1]", "value": "induced beige cell formation"}, {"measurement": "Compound GD Efficacy", "setting": "[2]; MDA-MB231, PI staining and WB: P-RB-780", "value": "Efficacious"}, {"measurement": "pRB phosphorylation", "setting": "[2]; breast cancer cell line MDA-MB231, 24 hours", "value": "inhibits pRB phosphorylation"}, {"measurement": "Compound GD Efficacy", "setting": "[3]", "value": "No"}, {"measurement": "body weight, most significant reduction compared to PBS treated mice", "setting": "[4]; 200 mg/kg/day", "value": 7.1, "unit": "% reduction"}, {"measurement": "fat pad mass vs PBS-treated mice", "setting": "[4]; 200 mg/kg/day by gavage for 21 days, 200 mg/kg/day", "value": "dramatically and significantly decreased; also recorded: reduced fat mass"}, {"measurement": "fat pad mass, eWAT, reduction vs PBS-treated mice", "setting": "[4]; [9]", "value": "~2.0", "unit": "fold reduction"}, {"measurement": "fat pad mass, iWAT, reduction vs PBS-treated mice", "setting": "[4]; [9]", "value": "~1.42", "unit": "fold reduction"}, {"measurement": "proliferation of CDK6−/− MEFs", "setting": "[5]; 6 days, GD 1-20 μM, PD 0.5 μM", "value": "little effect"}, {"measurement": "preference for CDK6 over CDK4", "setting": "[5]; concluded from WT versus CDK6−/− MEFs and SVFs", "value": "preferentially inhibits CDK6 over CDK4"}, {"measurement": "white adipocyte formation", "setting": "[6]; GD 0.1 μM, FIG. 8C", "value": "inhibited white adipocyte formation"}, {"measurement": "white adipocyte formation", "setting": "[6]; GD 5 μM, FIG. 8A", "value": "inhibited white adipocyte formation"}, {"measurement": "Compound GD Efficacy", "setting": "[7]; Brain Tumor: U87 human primary glioblastoma cell line, WB: P-RB-780", "value": "Efficacious"}, {"measurement": "pRB phosphorylation", "setting": "[7]; glioblastoma cell line U87, 24 hours", "value": "inhibits pRB phosphorylation"}, {"measurement": "growth of lung cancer cell line A549", "setting": "[8]; FIGS. 4A-4D", "value": "inhibits growth"}, {"measurement": "IC50", "setting": "[8]; Homo sapiens, 144 h, A549, 6 days, read-out: IC50 (percentage of S-G2-M cells)", "value": "~50", "unit": "nM"}, {"measurement": "Compound GD Efficacy", "setting": "[8]; Lung Cancer: A549, WB: P-RB-780, PI staining", "value": "Efficacious"}]}]}
